The source of these data is US20130072509A1, “PTEROSTILBENE AND STATIN COMBINATION FOR TREATMENT OF METABOLIC DISEASE, CARDIOVASCULAR DISEASE, AND INFLAMMATION” (ChromaDex Inc., priority 2011, published 2013).

Like-named read-outs stand apart in the source and are kept apart here.

The target of one data set is T1, PPAR-alpha (Rattus norvegicus, UniProt P37230).
T1 construct: endogenous in cells; host or cells: H4IIEC3 rat liver cells
T1 sequence (P37230 1-468): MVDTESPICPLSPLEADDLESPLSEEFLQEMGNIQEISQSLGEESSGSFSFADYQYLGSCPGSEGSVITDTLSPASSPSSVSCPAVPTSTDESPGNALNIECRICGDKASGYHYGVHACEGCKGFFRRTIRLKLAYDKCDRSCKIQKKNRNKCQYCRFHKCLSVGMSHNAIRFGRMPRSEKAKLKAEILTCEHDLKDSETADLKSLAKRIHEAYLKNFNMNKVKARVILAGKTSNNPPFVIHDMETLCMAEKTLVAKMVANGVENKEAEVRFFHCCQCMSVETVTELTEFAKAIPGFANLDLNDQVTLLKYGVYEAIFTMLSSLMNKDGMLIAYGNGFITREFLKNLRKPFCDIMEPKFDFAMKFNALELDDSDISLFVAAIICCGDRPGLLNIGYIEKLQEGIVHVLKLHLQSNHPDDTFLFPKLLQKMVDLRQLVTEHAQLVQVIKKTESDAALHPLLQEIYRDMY
The settings on record: cited from earlier work.

The next data set concerns the target T2, CYP1A1 (Homo sapiens, UniProt P04798).
T2 sequence (P04798 1-512): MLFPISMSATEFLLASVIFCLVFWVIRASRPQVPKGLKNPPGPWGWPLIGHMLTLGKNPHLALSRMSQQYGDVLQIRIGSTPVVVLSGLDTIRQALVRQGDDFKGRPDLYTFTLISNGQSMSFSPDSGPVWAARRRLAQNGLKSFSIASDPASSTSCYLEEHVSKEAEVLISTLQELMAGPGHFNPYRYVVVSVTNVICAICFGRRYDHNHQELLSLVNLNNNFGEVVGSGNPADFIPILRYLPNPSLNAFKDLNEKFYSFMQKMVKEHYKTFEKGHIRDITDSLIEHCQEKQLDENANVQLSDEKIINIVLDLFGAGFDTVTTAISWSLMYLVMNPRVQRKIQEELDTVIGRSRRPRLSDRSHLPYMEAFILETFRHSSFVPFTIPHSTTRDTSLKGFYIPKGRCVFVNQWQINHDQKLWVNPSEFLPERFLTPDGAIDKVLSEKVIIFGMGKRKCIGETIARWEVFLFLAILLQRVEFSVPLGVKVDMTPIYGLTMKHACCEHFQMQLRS
As to conditions: human recombinant; cited from earlier work.

For data set [1] the following is noted: mice, 28-day subacute; 160 pound human equivalent doses of approximately 125 mg/day, 1.25 g/day and 12.5 g/day; cited from earlier work.
A further data set concerns the target T3, CYP1B1 (Homo sapiens, UniProt Q16678).
T3 sequence (Q16678 1-543): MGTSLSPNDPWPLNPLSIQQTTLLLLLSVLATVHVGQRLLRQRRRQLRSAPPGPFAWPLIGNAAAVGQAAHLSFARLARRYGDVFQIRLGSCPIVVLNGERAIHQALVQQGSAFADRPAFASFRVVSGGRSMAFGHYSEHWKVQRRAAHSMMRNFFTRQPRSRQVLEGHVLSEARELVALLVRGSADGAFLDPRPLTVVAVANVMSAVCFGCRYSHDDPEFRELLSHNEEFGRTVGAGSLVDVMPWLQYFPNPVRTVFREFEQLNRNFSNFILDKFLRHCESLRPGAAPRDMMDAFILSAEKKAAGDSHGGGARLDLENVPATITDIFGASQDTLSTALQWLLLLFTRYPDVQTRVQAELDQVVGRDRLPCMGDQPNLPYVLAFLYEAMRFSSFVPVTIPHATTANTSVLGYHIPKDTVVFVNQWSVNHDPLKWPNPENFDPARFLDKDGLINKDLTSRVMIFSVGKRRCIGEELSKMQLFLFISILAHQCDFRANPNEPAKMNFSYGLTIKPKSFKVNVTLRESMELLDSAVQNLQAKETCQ
The settings on record: human recombinant; cited from earlier work.

The conditions of data set [2]: cited from earlier work; for bioavailability: in vivo.
In a further data set the test system is rat smooth muscle cells. As to conditions: in vitro; cited from earlier work.
The nature of data set [3]: Human clinical trial in dyslipidemia patients: lipids and blood pressure. In kind it is in vivo. An excerpt:
The following is a general study design for human clinical trial to assess efficacy of pterostilbene, in combination with a statin, to lower cholesterol and/or lower blood pressure, among other measured endpoints including markers for oxidative stress. The study type is interventional: a randomized, double-blind, placebo controlled study. Endpoint Classification: Safety/Efficacy Study.
The purpose of this study is to evaluate whether pterostilbene alone, or a combination of pterostilbene and a statin compound, will help control cholesterol and blood pressure, as well as improve markers for oxidative stress in patients with dyslipidemia meeting inclusion criteria. The investigators will assess the safety of pterostilbene in these patients. Further, 33% of all subjects, spread randomly across all study groups, will be undergoing concurrent statin therapy but still satisfy the inclusion criteria of a previous TC≧200 mg/dL, and/or a LDL-C≧100 mg/dL.
Sixty subjects, divided into three groups: 20 per study group. Ages eligible for study: 18 to 88 years, both genders. No healthy volunteers accepted. Inclusion criteria: patients ≧18 years of age with a previous TC≧200 mg/dL, and/or a LDL-C≧100 mg/dL on either no therapy or stable therapy. Any concomitant cholesterol medication must be at a stable dose for at least 2 months prior to baseline laboratory and not listed in the exclusion criteria. Exclusion criteria: patients with significant hepatic, renal or gastrointestinal tract disease, receiving thiazolidinediones or fibric acid derivatives, current overt cardiovascular disease, women of reproductive potential not receiving birth control, and pregnant/nursing women.
Evaluation Criteria for clinical measurement: 1. Primary outcome measures: lipid laboratory markers (i.e., change in baseline TC, LDL-C, triglycerides (TG), HDL-C, non-HDL-C); 2. Secondary outcome measures: blood pressure (i.e., change in baseline systolic blood pressure and/or diastolic blood pressure); basic metabolic panel; AST (aspartate aminotransferase); ALT (alanine aminotransferase); and/or oxidative stress markers (i.e., change in baseline urine-derived markers of stress (e.g., isoprostanes: iPF2-Alpha-III/creat; iPF2-Alpha-VI/creat; 2,3 Dinor-iPF2-Alpha-III/creat)).
Subjects will be divided into three groups or arms: (1) high dose pterostilbene, 125 mg twice daily by mouth for 6 to 8 weeks; (2) low dose pterostilbene, 50 mg twice daily by mouth for 6 to 8 weeks; (3) matching placebo taken twice daily by mouth for 6 to 8 weeks; either one hour before or two hours after a meal. Further, as stated above, 33% of all subjects, spread randomly across all study groups, will be undergoing concurrent statin therapy. […]

A further data set concerns H4IIEC3 rat liver cells. As to conditions: 100 μM; cited from earlier work.
Where [4] appears, read: 100 μM, H4IIEC3 rat liver cells.
Setting [5] is: after 8 weeks, oral twice daily, pterostilbene alone.

For the compound `COc1cc(/C=C/c2ccc(O)cc2)cc(OC)c1` [pterostilbene, 3,5-dimethoxy-4′-hydroxy-trans-stilbene], on PPAR-alpha (setting [4]), the “PPAR-alpha activation over the control” value is on record as 8 fold and the “PPAR-alpha activation relative to 100 μM of ciprofibrate” value was roughly 2 fold. Also, at PPAR-alpha (300 μM, H4IIEC3 rat liver cells), the “PPAR-alpha activation over the control” value is given as 14 fold. Besides, the “PPAR-alpha activation (in words)” value on PPAR-alpha (study of a group of similar stilbenes, in a manner similar to ciprofibrate) was “activated PPAR-alpha”. In addition, at CYP1A1, the CYP1A1 inhibition result is on record as “shown to inhibit”. The “local or systemic toxicity” value in data set [1] is recorded as “no local or systemic toxicity”. Also, the CYP1B1 inhibition result on CYP1B1 is recorded as “shown to inhibit”. Besides, in data set [2], the “half life t1/2 in blood” value is 74 to 105 min and the bioavailability entry is reported as “orally bioavailable”. Also, in the data set with rat smooth muscle cells, the “proliferation of rat smooth muscle cells” value is “inhibit the proliferation”. Also, in data set [3] (setting [5]), the “change in LDL-C level” value is given as “slight increases” and the “change in TC level” value is “slight increases”. For the same compound, the “reduction in diastolic blood pressure” value in data set [3] (high dose (250 mg daily), including patients receiving a statin, p<0.001) is listed as −7.3 mmHg. For the same compound, in data set [3] (high dose (250 mg daily), including patients receiving a statin, p<0.01), the “reduction in systolic blood pressure” value was −7.8 mmHg.

As to `Oc1ccc(C=Cc2cc(O)cc(O)c2)cc1` [resveratrol, reference compound], the Toxicity to cells result in the data set on H4IIEC3 rat liver cells is reported as “toxic to cells”. For the same compound, in data set [2], the “half life t1/2 in blood” value was 10 to 14 min and the bioavailability result was “poor bioavailability”.
